Source: patent publication US20050208496A1, “Methods of testing for bronchial asthma or chronic obstructive pulmonary disease” (Genox Research, Inc., priority 2002, published 2005)

Test system: Balb/c mice
Experiment: OVA antigen-exposed bronchial hypersensitivity mouse model, respiratory constriction caused by acetylcholine
Assay type: in vivo
Conditions: 5 mg/kg orally
Description: 50 μg OVA and 1 mg aluminum hydroxide (an adjuvant) were injected into the peritoneal cavity of Balb/c mice (male, seven-week old), and after 10 days the mice was sensitized with OVA under the same conditions. Then, after 10 days, 1% OVA was given by inhalation using the Ultra-nebulizer model UN701 (Azwell (Co., Ltd.)) for 30 minutes every four days three times in total. Enhanced bronchial hypersensitivity was monitored by detecting the respiratory constriction caused by acetylcholine (6.25-2000 μg/kg) using an artificial respirator (model 131, New England Medical Instruments Inc.) 24 hours after the final antigen inhalation (Nagai H. et al, Int Arch Allergy Immunol; 108: 189-195, 1995). Bronchial hypersensitivity can be induced by this treatment.

C[C@]12C=CC(=O)C=C1CC[C@@H]1[C@@H]2[C@@H](O)C[C@@]2(C)[C@H]1CC[C@]2(O)C(=O)CO [Prednisolone]
development of bronchial hypersensitivity: suppressed
